One data set can be described thus: in vitro. Particulars: human.
Data set [1] deals with T1, CD45 (Homo sapiens, UniProt P08575).
T1 construct: incubating the cytosolic portion of CD45 with the compounds and p-nitrophenyl phosphate (pNPP); purchased BIOMOL (Plymouth Meeting, Pa.)
T1 sequence (P08575 599-1306 limits assumed): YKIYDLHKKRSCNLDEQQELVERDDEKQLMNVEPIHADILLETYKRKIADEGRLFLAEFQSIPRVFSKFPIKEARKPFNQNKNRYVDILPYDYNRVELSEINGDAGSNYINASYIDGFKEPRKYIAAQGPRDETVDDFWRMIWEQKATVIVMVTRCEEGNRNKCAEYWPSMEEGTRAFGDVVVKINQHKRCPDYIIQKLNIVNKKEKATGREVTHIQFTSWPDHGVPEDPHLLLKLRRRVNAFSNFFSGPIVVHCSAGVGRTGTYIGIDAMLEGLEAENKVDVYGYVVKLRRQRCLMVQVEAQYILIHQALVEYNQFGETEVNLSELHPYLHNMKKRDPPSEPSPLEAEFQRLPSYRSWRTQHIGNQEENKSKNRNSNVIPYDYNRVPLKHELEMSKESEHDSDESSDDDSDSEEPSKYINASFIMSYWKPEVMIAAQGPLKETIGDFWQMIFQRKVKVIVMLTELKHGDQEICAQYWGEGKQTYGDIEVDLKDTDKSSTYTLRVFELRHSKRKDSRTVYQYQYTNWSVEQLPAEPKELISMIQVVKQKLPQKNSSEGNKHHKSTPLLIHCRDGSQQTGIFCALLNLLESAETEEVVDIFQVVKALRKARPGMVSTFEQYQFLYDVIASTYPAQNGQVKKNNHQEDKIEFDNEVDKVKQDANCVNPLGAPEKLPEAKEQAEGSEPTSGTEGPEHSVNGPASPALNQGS
The data set can be described thus: Phosphatase assay using lck 10-mer as substrate. It counts as biochemical. In short, it runs like this: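 Enzyme incubated with lck phosphopeptide TEGQpYQPQP for 1.5 h at room temperature in 25 mM HEPES pH 7.2, 5 mM DTT, 10 μg/mL BSA, 5% DMSO final. Compounds tested from 30 to 0.01 μM. Released phosphate detected with malachite-type Green Reagent, absorbance at 620 nm after 30 min.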

Data set [2] concerns the target T1, CD45. Briefly: Phosphatase assay using pNPP as substrate. It counts as biochemical. The method, then: Phosphatase assay using pNPP as substrate:
CD45 enzyme was obtained from BIOMOL (Plymouth Meeting, Pa.). Phosphatase activity was assayed in a buffer containing final concentrations of 25 mM imidazole at pH 7.0, 50 mM NaCl, 2.5 mM ethylenediaminetetraacetic acid (“EDTA”), 5 mM dithiothreitol (“DTT”) and 10 μg/mL bovine serum albumin (“BSA”) using pNPP as a substrate.

A further data set concerns T cells (PBMC). Briefly: cells. It counts as cell-based, human. Particulars: human PBMC, OKT3 30 ng/mL, [3H]thymidine; read-out: T cell prolif. IC50.
The mark [3] stands for this setting: CD45 phosphatase, lck carboxy-terminal peptide TEGQpYQPQP substrate, pH 7.2, read-out: Ick IC50.

pIC50: −log10 of the molar value. Where a SMILES comes first, the peptide text is derived from it. The star is where a group is joined. Phenanthrenequinone2carbonyl = O=C1C(=O)c2cc(C(=O)*)ccc2-c2ccccc21; 3Phenanthroyl(9,10-dioxo) = O=C1C(=O)c2ccc(C(=O)*)cc2-c2ccccc21

In the data set “in vitro”, `NC(=O)CC[C@H](NC(=O)[C@@H]1CCCN1C(=O)[C@H](CCC(N)=O)NC(=O)CNC(=O)c1ccc2c(c1)-c1ccccc1C(=O)C2=O)C(=O)NCC(=O)O` [Example 36] ({3Phenanthroyl(9,10-dioxo)}-GQPQG-OH) displayed a CC50 greater than 30000 nM. In addition, the pIC50 on CD45 [1] (setting [3]) is 5.66; at CD45 [2] it was 6.00.

For the molecule `NC(=O)CC[C@H](NC(=O)c1ccc2c(c1)-c1ccccc1C(=O)C2=O)C(=O)N[C@@H](CCC(N)=O)C(=O)N1CCC[C@H]1C(=O)N[C@@H](CCC(N)=O)C(=O)NCC(=O)O` [Example 37] ({3Phenanthroyl(9,10-dioxo)}-QQPQG-OH), in “in vitro”, the CC50 is greater than 30000 nM. Also, the pIC50 on CD45 [1] (setting [3]) was 5.68; against CD45 [2], 5.96.

Take `NC(=O)CC[C@H](NC(=O)CNC(=O)c1ccc2c(c1)-c1ccccc1C(=O)C2=O)C(=O)N1CCC[C@H]1C(=O)N[C@@H](CCC(=O)O)C(=O)NCC(=O)O` [Example 39] ({3Phenanthroyl(9,10-dioxo)}-GQPEG-OH): the CC50 in the data set “in vitro” was greater than 30000 nM. Besides, the pIC50 on CD45 [1] (setting [3]) was 5.64; against CD45 [2], 6.15.

The molecule `O=C(O)CC[C@H](NC(=O)[C@@H]1CCCN1C(=O)CNC(=O)CNC(=O)c1ccc2c(c1)C(=O)C(=O)c1ccccc1-2)C(=O)NCC(=O)O` [Example 40] (Phenanthrenequinone2carbonyl-GGPEG-OH) had a CC50 in “in vitro” greater than 30000 nM. Moreover, the negative logarithm of the IC50 (pIC50) against CD45 [1] was 5.41; at CD45 [2] (pH 7, read-out: pNPP IC50), 6.22.

The molecule `O=C(O)CC[C@H](NC(=O)c1ccc2c(c1)C(=O)C(=O)c1ccccc1-2)C(=O)NCC(=O)N1CCC[C@H]1C(=O)N[C@@H](CCC(=O)O)C(=O)NCC(=O)O` [Example 41] (Phenanthrenequinone2carbonyl-EGPEG-OH) returned a CC50 in “in vitro” greater than 30000 nM. Also, the pIC50 was 5.46 against CD45 [1] and 5.85 on CD45 [2] (pH 7, read-out: pNPP IC50).

`N=C(N)NCCC[C@H](NC(=O)c1ccc2c(c1)C(=O)C(=O)c1ccccc1-2)C(=O)NCC(=O)N1CCC[C@H]1C(=O)N[C@@H](CCC(=O)O)C(=O)NCC(=O)O` [Example 42] (Phenanthrenequinone2carbonyl-RGPEG-OH) came in with a CC50 in the data set “in vitro” greater than 30000 nM. Also, the pIC50 on CD45 [1] was 5.46; on CD45 [2] (pH 7, read-out: pNPP IC50), 6.05.

Molecule `O=C(O)CC[C@H](NC(=O)[C@@H]1CCCN1C(=O)[C@H](CCC(=O)O)NC(=O)CNC(=O)c1ccc2c(c1)C(=O)C(=O)c1ccccc1-2)C(=O)NCC(=O)O` [Example 43] (Phenanthrenequinone2carbonyl-GEPEG-OH) showed a CC50 in the data set “in vitro” greater than 30000 nM. In addition, the negative logarithm of the IC50 (pIC50) against CD45 [1] was 5.42; at CD45 [2] (pH 7, read-out: pNPP IC50), 5.72.

In turn, `O=C(O)CC[C@H](NC(=O)c1ccc2c(c1)C(=O)C(=O)c1ccccc1-2)C(=O)N[C@@H](CCC(=O)O)C(=O)N1CCC[C@H]1C(=O)N[C@@H](CCC(=O)O)C(=O)NCC(=O)O` [Example 44] (Phenanthrenequinone2carbonyl-EEPEG-OH) had a CC50 in “in vitro” greater than 30000 nM. In addition, the pIC50 at CD45 [1] was 5.42; on CD45 [2] (pH 7, read-out: pNPP IC50), 5.96.

Molecule `N=C(N)NCCC[C@H](NC(=O)c1ccc2c(c1)C(=O)C(=O)c1ccccc1-2)C(=O)N[C@@H](CCC(=O)O)C(=O)N1CCC[C@H]1C(=O)N[C@@H](CCC(=O)O)C(=O)NCC(=O)O` [Example 45] (Phenanthrenequinone2carbonyl-REPEG-OH) displayed a CC50 in “in vitro” greater than 30000 nM. For the same molecule, the pIC50 at CD45 [1] was 5.41; on CD45 [2] (pH 7, read-out: pNPP IC50), 5.85.

With `N=C(N)NCCC[C@H](NC(=O)CNC(=O)c1ccc2c(c1)C(=O)C(=O)c1ccccc1-2)C(=O)N1CCC[C@H]1C(=O)N[C@@H](CCC(=O)O)C(=O)NCC(=O)O` [Example 46] (Phenanthrenequinone2carbonyl-GRPEG-OH), the CC50 in the data set “in vitro” was greater than 30000 nM. Besides, the pIC50 was 5.42 against CD45 [1] and 6.00 at CD45 [2] (pH 7, read-out: pNPP IC50).

With `N=C(N)NCCC[C@H](NC(=O)[C@H](CCC(=O)O)NC(=O)c1ccc2c(c1)C(=O)C(=O)c1ccccc1-2)C(=O)N1CCC[C@H]1C(=O)N[C@@H](CCC(=O)O)C(=O)NCC(=O)O` [Example 47] (Phenanthrenequinone2carbonyl-ERPEG-OH), in “in vitro”, the CC50 was greater than 30000 nM. The negative logarithm of the IC50 (pIC50) on CD45 [1] was 5.38; at CD45 [2] (pH 7, read-out: pNPP IC50), 6.15.

In the case of `N=C(N)NCCC[C@H](NC(=O)c1ccc2c(c1)C(=O)C(=O)c1ccccc1-2)C(=O)N[C@@H](CCCNC(=N)N)C(=O)N1CCC[C@H]1C(=O)N[C@@H](CCC(=O)O)C(=O)NCC(=O)O` [Example 48] (Phenanthrenequinone2carbonyl-RRPEG-OH), the CC50 in “in vitro” is greater than 30000 nM. For the same molecule, the pIC50 was 5.24 on CD45 [1] and 6.22 at CD45 [2] (pH 7, read-out: pNPP IC50).

Turning to `N=C(N)NCCC[C@H](NC(=O)[C@@H]1CCCN1C(=O)CNC(=O)CNC(=O)c1ccc2c(c1)C(=O)C(=O)c1ccccc1-2)C(=O)NCC(=O)O` [Example 49] (Phenanthrenequinone2carbonyl-GGPRG-OH), in the data set “in vitro”, the CC50 was greater than 30000 nM. Further, the pIC50 against CD45 [1] was 5.21; on CD45 [2] (pH 7, read-out: pNPP IC50), 6.05.

For the molecule `N=C(N)NCCC[C@H](NC(=O)[C@@H]1CCCN1C(=O)CNC(=O)[C@H](CCC(=O)O)NC(=O)c1ccc2c(c1)C(=O)C(=O)c1ccccc1-2)C(=O)NCC(=O)O` [Example 50] (Phenanthrenequinone2carbonyl-EGPRG-OH), the CC50 in “in vitro” was greater than 30000 nM. Moreover, the negative-log IC50 (pIC50) was 5.55 against CD45 [1] and 6.15 at CD45 [2] (pH 7, read-out: pNPP IC50).

With `N=C(N)NCCC[C@H](NC(=O)c1ccc2c(c1)C(=O)C(=O)c1ccccc1-2)C(=O)NCC(=O)N1CCC[C@H]1C(=O)N[C@@H](CCCNC(=N)N)C(=O)NCC(=O)O` [Example 51] (Phenanthrenequinone2carbonyl-RGPRG-OH), in the data set “in vitro”, the CC50 was greater than 30000 nM. Moreover, the negative logarithm of the IC50 (pIC50) against CD45 [1] was 5.32; on CD45 [2] (pH 7, read-out: pNPP IC50), 5.96.

`N=C(N)NCCC[C@H](NC(=O)[C@@H]1CCCN1C(=O)[C@H](CCC(=O)O)NC(=O)CNC(=O)c1ccc2c(c1)C(=O)C(=O)c1ccccc1-2)C(=O)NCC(=O)O` [Example 52] (Phenanthrenequinone2carbonyl-GEPRG-OH) registered a CC50 in “in vitro” greater than 30000 nM. The negative-log IC50 (pIC50) at CD45 [1] was 5.52; at CD45 [2] (pH 7, read-out: pNPP IC50), 6.10.

In the data set “in vitro”, `N=C(N)NCCC[C@H](NC(=O)[C@@H]1CCCN1C(=O)[C@H](CCC(=O)O)NC(=O)[C@H](CCC(=O)O)NC(=O)c1ccc2c(c1)C(=O)C(=O)c1ccccc1-2)C(=O)NCC(=O)O` [Example 53] (Phenanthrenequinone2carbonyl-EEPRG-OH) yielded a CC50 greater than 30000 nM. The negative-log IC50 (pIC50) at CD45 [1] was 5.43; on CD45 [2] (pH 7, read-out: pNPP IC50), 6.00.

Turning to `N=C(N)NCCC[C@H](NC(=O)c1ccc2c(c1)C(=O)C(=O)c1ccccc1-2)C(=O)N[C@@H](CCC(=O)O)C(=O)N1CCC[C@H]1C(=O)N[C@@H](CCCNC(=N)N)C(=O)NCC(=O)O` [Example 54] (Phenanthrenequinone2carbonyl-REPRG-OH), the CC50 in the data set “in vitro” is greater than 30000 nM. The pIC50 on CD45 [1] (setting [3]) is 5.41; against CD45 [2], 6.05.

Consider `N=C(N)NCCC[C@H](NC(=O)[C@@H]1CCCN1C(=O)[C@H](CCCNC(=N)N)NC(=O)CNC(=O)c1ccc2c(c1)C(=O)C(=O)c1ccccc1-2)C(=O)NCC(=O)O` [Example 55] (Phenanthrenequinone2carbonyl-GRPRG-OH), for which, in the data set “in vitro”, the CC50 was greater than 30000 nM. Moreover, the negative logarithm of the IC50 (pIC50) is 5.33 against CD45 [1] and 5.85 at CD45 [2] (pH 7, read-out: pNPP IC50).

`N=C(N)NCCC[C@H](NC(=O)[C@@H]1CCCN1C(=O)[C@H](CCCNC(=N)N)NC(=O)[C@H](CCC(=O)O)NC(=O)c1ccc2c(c1)C(=O)C(=O)c1ccccc1-2)C(=O)NCC(=O)O` [Example 56] (Phenanthrenequinone2carbonyl-ERPRG-OH) gave a CC50 in the data set “in vitro” greater than 30000 nM. Moreover, the pIC50 at CD45 [1] was 5.64; at CD45 [2] (pH 7, read-out: pNPP IC50), 6.10.

In “in vitro”, `N=C(N)NCCC[C@H](NC(=O)c1ccc2c(c1)C(=O)C(=O)c1ccccc1-2)C(=O)N[C@@H](CCCNC(=N)N)C(=O)N1CCC[C@H]1C(=O)N[C@@H](CCCNC(=N)N)C(=O)NCC(=O)O` [Example 57] (Phenanthrenequinone2carbonyl-RRPRG-OH) came in with a CC50 greater than 30000 nM. Moreover, the pIC50 was 5.49 against CD45 [1] and 5.89 on CD45 [2] (pH 7, read-out: pNPP IC50).

Turning to `O=C1C(=O)c2ccccc2-c2ccccc21` [Example 106, 9,10-Phenanthrenedione], the pIC50 in the data set on T cells (PBMC) is 6.52; at CD45 [1] (pH 7.2, read-out: Ick IC50) it was 5.51; at CD45 [2] (pH 7, read-out: pNPP IC50), 6.15. In “in vitro”, this molecule registered a CC50 of 1300 nM.

As a reminder, the pIC50 is −log10 of the IC50, conventionally taken in molar units.

The values above are taken from patent US20030207812A1, “Cd45 inhibitors” (priority 2002, published 2003).
